The series in a line: Fluorescence properties of the new compounds (excitation and emission wavelengths). It counts as physicochemical. As to conditions: free compound.

Consider `CC(=O)NC1CC(C(=O)NC2CC(C(=O)NC3CC(C(=O)NC4CC(C(=O)NC5CC(C(=O)NC6CC(C(=O)NC7CC(C(N)=O)N(C(=O)CNC(=O)c8c9ccccc9nc9c8[nH]c8ccccc89)C7)N(C(C)=O)C6)N(C(C)=O)C5)N(C(=O)CNC(=O)c5cc(-c6ccccc6)nc6ccccc56)C4)N(C(C)=O)C3)N(C(C)=O)C2)N(C(=O)CNC(=O)c2c3ccccc3nc3ccccc23)C1` (stereo not shown) [Example 67], for which the “Fluorescence Excitation (nm)” value is 265 nm and the “Fluorescence emission (nm)” value was 451 nm.
For `OC[C@H](O)CNc1c2ccccc2nc2ccccc12` [Compound 5a, (R)-3-(Acridin-9-ylamino)propane-1,2-diol], the “Fluorescence Excitation (nm)” value turned out to be 433 nm.
Still for that read-out and setting: next, `CC(=O)N1CC(NC(=O)CNC(=O)c2c3ccccc3nc3c2[nH]c2ccccc23)C[C@H]1C(=O)N1CC(NC(=O)CNC(=O)c2c3ccccc3nc3c2[nH]c2ccccc23)C[C@H]1C(N)=O` (stereo partly shown) [Example 53, N^4-Acetyl-4-amino-{2-(10H-indolo[3,2-b]quinoline-11-carboxamide)acetyl}prolinyl-4-amino-{2-(10H-indolo[3,2-b]quinoline-11-carboxamide)acetyl}prolinamide]: 348 nm.
On to `CC(O)C(CO)NC(=O)CNC(=O)c1c2ccccc2nc2ccccc12` (stereo not shown) [Compound 2d, N-((1,3-dihydroxybutan-2-ylcarbamoyl)methyl)acridine-9-carboxamide], for which the “Fluorescence Excitation (nm)” value is listed as 247 nm and the “Fluorescence emission (nm)” value worked out at 440 nm.
The corresponding values for `CC(O)C(COP(=O)(O)OC(C)C(CO)NC(=O)c1c2ccccc2nc2ccccc12)NC(=O)c1cc(-c2ccccc2)nc2ccccc12` (stereo not shown) [Example 36, O-{2-N-(acridine-9-carbamoyl)-1-hydroxybut-3-yl} and O-{2-N-(2-phenylquinoline-4-carbamoyl-3-hydroxybutan-1-yl)} phosphate] are 252 nm and 403 nm.
On the same counts, the results for `CC(=O)NCCN(CC(=O)NCCN(CC(=O)NCCCCCCO)C(=O)CNC(=O)c1c2ccccc2nc2ccccc12)C(=O)CNC(=O)c1c2ccccc2nc2ccccc12` [Example 46] are 248 nm and 441 nm.
On the same counts, the results for `CC(=O)N1CC(NC(=O)CNC(=O)c2c3ccccc3nc3ccccc23)C[C@H]1C(=O)N1CC(NC(=O)CNC(=O)c2c3ccccc3nc3ccccc23)C[C@H]1C(N)=O` (stereo partly shown) [Example 52, N^4-Acetyl-4-amino-{2-(acridine-9-carboxamide)acetyl}prolinyl-4-amino-{2-(acridine-9-carboxamide)acetyl}prolinamide] are 274 nm and 450 nm.
As to `C[C@@H](O)[C@H](CO)NC(=O)c1cc(-c2ccccc2)nc2ccccc12` [Compound 2e, N-((2S, 3R)-1,3-dihydroxybutan-2-yl)-2-phenylquinoline-4-carboxamide], the “Fluorescence Excitation (nm)” value was determined as 326 nm and the “Fluorescence emission (nm)” value worked out at 377 nm.
On the same counts, the results for `CC(O)C(CO)NC(=O)c1c2ccccc2nc2ccccc12` (stereo not shown) [Compound 2b, N-(1,3-dihydroxybutan-2-yl)acridine-9-carboxamide] are 358 nm and 439 nm.
The corresponding values for `CC(=O)NC1CC(C(=O)NC2CC(C(=O)NC3CC(C(N)=O)N(C(=O)CNC(=O)c4c5ccccc5nc5c4[nH]c4ccccc45)C3)N(C(=O)CNC(=O)c3c4ccccc4nc4c3[nH]c3ccccc34)C2)N(C(=O)CNC(=O)c2c3ccccc3nc3c2[nH]c2ccccc23)C1` (stereo not shown) [Example 57, N^4-Acetyl-4-amino-{2-(10H-indolo[3,2-b]quinoline-11-carboxamide)acetyl}prolinyl-4-amino-{2-(10H-indolo[3,2-b]quinoline-11-carboxamide)acetyl}prolinyl-{2-(10H-indolo[3,2-b]quinoline-11-carboxamide)acetyl}prolinamide] are 348 nm and 505 nm.
The corresponding values for `CC(=O)NC1CC(C(=O)NC2CC(C(=O)NC3CC(C(N)=O)N(C(=O)CNC(=O)c4c5ccccc5nc5c4[nH]c4ccccc45)C3)N(C(=O)CNC(=O)c3c4ccccc4nc4ccccc34)C2)N(C(=O)CNC(=O)c2c3ccccc3nc3c2[nH]c2ccccc23)C1` (stereo not shown) [Example 61, N^4-Acetyl-4-amino-{2-(10H-indolo[3,2-b]quinoline-11-carboxamide)acetyl}prolinyl-4-amino-{2-(acridine-9-carboxamide)acetyl}prolinyl-4-amino-{2-(10H-indolo[3,2-b]quinoline-11-carboxamide)acetyl}prolinamide] are 348 nm and 488 nm.
For the molecule `C[C@@H](O)[C@H](CO)NC(=O)CN1c2ccccc2C=C2C3C=CC=CC3=NC21` (stereo partly drawn) [Compound 2f, N-((2S, 3R)-1,3-dihydroxybutan-2-yl)-(4a, 10a-dihydro-10,11-diazabenzo[b]fluoren-10-yl)acetamide], the “Fluorescence Excitation (nm)” value is 261 nm and the “Fluorescence emission (nm)” value turned out to be 456 nm.
For the molecule `NC(=O)CCCOP(=O)(O)O[C@H](CNc1c2ccccc2nc2ccccc12)COP(=O)(O)O[C@@H](CO)CNc1c2ccccc2nc2ccccc12` [Example 33, O-[(R)-3-(Acridin-9-ylamino)-1-hydroxy-propane-2-yl]-phosphate (2-1) O-{2-N-(acridine-9-ylamino)-2-oxyprop-1-yl} phosphate(2-4) 4-hydroxybutirame], the “Fluorescence Excitation (nm)” value is reported as 359 nm and the “Fluorescence emission (nm)” value turned out to be 440 nm.
Take `CC(=O)N[C@@H](CCCNC(=O)CNC(=O)c1c2ccccc2nc2ccccc12)C(=O)N[C@@H](CCCNC(=O)CNC(=O)c1c2ccccc2nc2ccccc12)C(=O)N[C@@H](CCCNC(=O)CNC(=O)c1c2ccccc2nc2ccccc12)C(N)=O` [Example 68, N^4-Acetyl-5-N-{2-(acridine-9-carboxamide)acetyl}ornithinyl-5-N-{2-(acridine-9-carboxamide)acetyl}ornithinyl-5-N-{2-(acridine-9-carboxamide)acetyl}ornithinamide]: the “Fluorescence Excitation (nm)” value is 360 nm and the “Fluorescence emission (nm)” value is given as 435 nm.
For the molecule `CC(O)C(CO)NC(=O)c1c2ccccc2nc2c1[nH]c1ccccc12` (stereo not shown) [Compound 2a, N-(1,3-dihydroxybutan-2-yl)-10H-indolo[3,2-d]quinoline-11-carboxamide], the “Fluorescence Excitation (nm)” value is reported as 346 nm and the “Fluorescence emission (nm)” value is 402 nm.
`CC(OP(=O)(O)OCC(O)CNc1c2nc3ccccc3c-2n(C)c2ccccc12)C(CO)NC(=O)c1c2ccccc2nc2ccccc12` [Example 31, O-{2-N-(Acridine-9-carbamoyl)-(1-hydroxybut-3-yl)} and O-{3-(5-methyl-5H-indolo[3,2b]quinolin-11-ylamino-(S)-(2-hydroxyprop-3-yl} phosphate]: the “Fluorescence Excitation (nm)” value was determined as 353 nm and the “Fluorescence emission (nm)” value is 441 nm.
Consider `CC(=O)NC1CC(C(=O)NC2CC(C(=O)NC3CC(C(=O)NC4CC(C(=O)NC5CC(C(=O)NC6CC(C(=O)NC7CC(C(N)=O)N(C(=O)CNC(=O)c8cc(-c9ccccc9)nc9ccccc89)C7)N(C(C)=O)C6)N(C(C)=O)C5)N(C(=O)CNC(=O)c5c6ccccc6nc6ccccc56)C4)N(C(C)=O)C3)N(C(C)=O)C2)N(C(=O)CNC(=O)c2c3ccccc3nc3c2[nH]c2ccccc23)C1` (stereo not shown) [Example 66, N^4-Acetyl-4-amino-{2-(10H-indolo[3,2-b]quinoline-11-carboxamide)acetyl}prolinyl-4-aminoprolinyl-4-aminoprolinyl-4-amino-{2-(acridine-9-carboxamide)acetyl}prolinyl-4-aminoprolinyl-4-aminoprolinyl-4-amino-[(2-phenyl-quinoline-4-carboxamide)acetyl]prolinamide], for which the “Fluorescence Excitation (nm)” value was 269 nm and the “Fluorescence emission (nm)” value came out at 432 nm.
Regarding `CC(=O)N[C@H]1C[C@@H](C(=O)N[C@H]2C[C@@H](C(=O)N[C@H]3C[C@@H](C(N)=O)N(C(=O)CNC(=O)c4c5ccccc5nc5ccccc45)C3)N(C(=O)CNC(=O)c3c4ccccc4nc4ccccc34)C2)N(C(=O)CNC(=O)c2c3ccccc3nc3c2[nH]c2ccccc23)C1` [Example 60, N^4-Acetyl-4-amino-{2-(10H-indolo[3,2-b]quinoline-11-carboxamide)acetyl}prolinyl-4-amino-{2-(acridine-9-carboxamide)acetyl}prolinyl-4-amino-{2-(acridine-9-carboxamide)acetyl}prolinamide], the “Fluorescence Excitation (nm)” value amounted to 309 nm and the “Fluorescence emission (nm)” value came out at 456 nm.
The corresponding values for `CC(=O)NC1CC(C(=O)NC2CC(C(=O)NC3CC(C(N)=O)N(C(=O)CNC(=O)c4c5ccccc5nc5ccccc45)C3)N(C(=O)CNC(=O)c3c4ccccc4nc4c3[nH]c3ccccc34)C2)N(C(=O)CNC(=O)c2c3ccccc3nc3ccccc23)C1` (stereo not shown) [Example 58, N^4-Acetyl-4-amino-{2-(acridine-9-carboxamide)acetyl}prolinyl-4-amino-{2-(10H-indolo[3,2-b]quinoline-11-carboxamide)acetyl}proliny-4-amino-{2-(acridine-9-carboxamide)acetyl}prolinamide] are 275 nm and 503 nm.
Take `CC(O)C(COP(=O)(O)OC(C)C(CO)NC(=O)c1cc(-c2ccccc2)nc2ccccc12)NC(=O)c1c2ccccc2nc2ccccc12` (stereo not shown) [Example 34, O-{2-N-(2-phenylquinoline-4-carbamoyl-1-hydroxybutan-3-yl)} and O-{2-N-(acridine-9-carbamoyl)-3-hydroxybut-1-yl} phosphate]: the “Fluorescence Excitation (nm)” value is reported as 252 nm and the “Fluorescence emission (nm)” value is 437 nm.
The corresponding values for `CC(OP(O)(=S)OC[C@@H](O)CNc1c2nc3ccccc3c-2n(C)c2ccccc12)C(CO)NC(=O)c1c2ccccc2nc2ccccc12` (stereo partly drawn) [Example 32, O-{2-N-(Acridine-9-carbamoyl)-(1-hydroxybut-3-yl)} and O-}3-(5-methyl-5H-indolo[3,2b]quinolin-11-ylamino-(S)-(2-hydroxyprop-3-yl} phosphorotioate] are 359 nm and 448 nm.
